Laboratory results: PubChem BioAssay (NCI)
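Growth conditions: 96-well plates. Treatment: test compound, 48 hours, 5 concentrations. Analysis: linear interpolation between bracketing concentrations; unreached endpoints set to highest concentration. TGI is the concentration that stops growth completely.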

Experiments:
Experiment in all cases: DTP human tumour cell line panel, 48 h
786-0 renal = test system: 786-0 renal
A549 NSCLC = test system: A549 NSCLC
ACHN renal = test system: ACHN renal
BT-549 breast = test system: BT-549 breast
CAKI-1 renal = test system: CAKI-1 renal
CCRF-CEM leukemia = test system: CCRF-CEM leukemia
COLO 205 colon = test system: COLO 205 colon
DU-145 prostate = test system: DU-145 prostate
EKVX NSCLC = test system: EKVX NSCLC
HCC-2998 colon = test system: HCC-2998 colon
HCT-116 colon = test system: HCT-116 colon
HCT-15 colon = test system: HCT-15 colon
HL-60(TB) leukemia = test system: HL-60(TB) leukemia
HOP-62 NSCLC = test system: HOP-62 NSCLC
HOP-92 NSCLC = test system: HOP-92 NSCLC
HS 578T breast = test system: HS 578T breast
HT29 colon = test system: HT29 colon
IGROV1 ovarian = test system: IGROV1 ovarian
K-562 leukemia = test system: K-562 leukemia
KM12 colon = test system: KM12 colon
LOX IMVI melanoma = test system: LOX IMVI melanoma
M14 melanoma = test system: M14 melanoma
MALME-3M melanoma = test system: MALME-3M melanoma
MCF7 breast = test system: MCF7 breast
MDA-MB-231 breast = test system: MDA-MB-231 breast
MDA-MB-435 = test system: MDA-MB-435
MDA-N = test system: MDA-N
MOLT-4 leukemia = test system: MOLT-4 leukemia
NCI-H226 lung = test system: NCI-H226 lung
NCI-H23 lung = test system: NCI-H23 lung
NCI-H522 lung = test system: NCI-H522 lung
OVCAR-3 ovarian = test system: OVCAR-3 ovarian
OVCAR-4 ovarian = test system: OVCAR-4 ovarian
OVCAR-5 ovarian = test system: OVCAR-5 ovarian
OVCAR-8 ovarian = test system: OVCAR-8 ovarian
PC-3 prostate = test system: PC-3 prostate
RPMI-8226 leukemia = test system: RPMI-8226 leukemia
RXF 393 renal = test system: RXF 393 renal
SF-268 CNS = test system: SF-268 CNS
SF-295 CNS = test system: SF-295 CNS
SF-539 CNS = test system: SF-539 CNS
SK-MEL-2 melanoma = test system: SK-MEL-2 melanoma
SK-MEL-28 melanoma = test system: SK-MEL-28 melanoma
SK-MEL-5 melanoma = test system: SK-MEL-5 melanoma
SN12C renal = test system: SN12C renal
SNB-19 CNS = test system: SNB-19 CNS
SNB-75 CNS = test system: SNB-75 CNS
SR leukemia = test system: SR leukemia
SW-620 colon = test system: SW-620 colon
TK-10 renal = test system: TK-10 renal
U251 CNS = test system: U251 CNS
UACC-257 melanoma = test system: UACC-257 melanoma
UO-31 renal = test system: UO-31 renal
A498 renal = test system: A498 renal
NCI-H460 lung = test system: NCI-H460 lung
NCI/ADR-RES ovarian = test system: NCI/ADR-RES ovarian
SK-OV-3 ovarian = test system: SK-OV-3 ovarian
UACC-62 melanoma = test system: UACC-62 melanoma

Measured: TGI

CC(=O)OCCOCn1c2c(c(=O)[nH]c1=O)CCC2
not listed: A498 renal | NCI-H460 lung | NCI/ADR-RES ovarian | SK-OV-3 ovarian | UACC-62 melanoma
> 100 µM: all other assays above

CC(=O)NC(CC(C)C)C(=O)NC(CC(C)C)C(=O)NC(C=O)CCCN=C(N)N (stereo unspecified)
not listed: HL-60(TB) leukemia | HS 578T breast | RXF 393 renal
> 100 µM: all other assays above

CC(C(=O)O)c1ccc(-n2nnc3c(=O)[nH][nH]c(=O)c32)cc1 (stereo unspecified)
not listed: 786-0 renal | HOP-92 NSCLC | HS 578T breast | HT29 colon | IGROV1 ovarian | NCI-H226 lung | NCI-H522 lung | RXF 393 renal | SF-268 CNS | SF-539 CNS | SNB-75 CNS | SW-620 colon | A498 renal | SK-OV-3 ovarian | UACC-62 melanoma
> 100 µM: all other assays above
